By pKi is commonly meant the Ki on a negative log10 scale, so that one unit is a factor of ten. Usually ED50 stands for the dose at which the effect has come halfway, by size or by number of responders. Read a low ED50 as an effect at a small dose.

The structures appear in SMILES notation. pKi: −log10 of the molar value.

In one test the target is benzodiazepine receptor. Description: Displacement ability for benzodiazepine receptor (displacement of tritiated diazepam). Conditions: displacement of tritiated diazepam (2 nM), rat cerebral cortex synaptosomal fraction, pH 7.4, 0° C., 20 minutes; read-out: binding for benzodiazepine Ki. On the procedure:
The experiment was performed according to the methods described in European Journal of Pharmacology, vol. 51, P. 129 (1978) and Life Science, vol. 20, p. 1201 (1977).
In brief, a crude synaptosomal fraction was isolated from the cerebral cortex of 9 to 10 week-old male Wistar rats and suspended in 50 mM of Tris-hydrochloric acid buffer solution (pH 7.4) containing 120 mM of sodium chloride and 5 mM of potassium chloride.
To the synaptosomal suspension as prepared above were added various concentrations of test compounds and tritiated diazepam (final concentration:2 nM), and the mixture was incubated at 0° C. for 20 minutes. Then the suspension was filtered through Whatman GF/B glass fiber filter. After the filter was washed with the foregoing buffer solution, the radioactivity left on the filter was measured by a liquid scintillation spectrometry.
Specific binding was determined by subtracting binding in the presence of 10^-6 M unlabelled diazepam from total binding.
According to the above experimental method, the affinity of the compounds of the present invention for benzodiazepine receptor is evaluated as an ability to displace tritiated diazepam from the binding site, and is represented as Ki value.
Consider `O=C1CC2CSc3ccccc3C2=NN1c1ccc(Br)cc1` (centres unmarked) [Example 13, 2-(4-bromophenyl)-2,3,4,4a-tetrahydro-5H-(1)benzothiopyrano[4,3-c]pyridazin-3-one], for which the pKi is 7.35.
`O=C1CC2CSc3ccccc3C2=NN1c1ccc(Cl)cc1` (centres unmarked) [Example 1, 2-(4-chlorophenyl)-2,3,4,4a-tetrahydro-5H-(1)benzothiopyrano[4,3-c]pyridazin-3-one]: the pKi was 7.40.
For `Cc1ccc(N2N=C3c4ccccc4SCC3CC2=O)cc1` (centres unmarked) [Example 9, 2-(4-methylphenyl)-2,3,4,4a-tetrahydro-5H-(1)benzothiopyrano[4,3-c]pyridazin-3-one], the pKi was 7.92.
The same measure, in the same setting: under `COc1ccc(N2N=C3c4ccccc4SCC3CC2=O)cc1` (centres unmarked) [Example 10, 2-(4-methoxyphenyl)-2,3,4,4a-tetrahydro-5H-(1)benzothiopyrano[4,3-c]pyridazin-3-one] stands 7.89.

Tested on in another test: not listed separately
Briefly: Anti-bicuculline effect (tonic convulsion in mice). The test is classed as in vivo, male ddY-strain mice. Conditions: Mus musculus, oral, (+)bicuculline 0.6 mg/kg i.v. 1 hour after test compound, tonic convulsion within 5 minutes. As for the experimental part:
The experiment of anti-bicuculline effect was performed according to the method described in Life Science, vol. 21, p. 1779 (1977).
In brief, groups of 7-14 male ddY-strain mice weighing 20-28 g were used. (+)Bicuculline (0.6 mg/kg) was intraveneously administered 1 hour after the oral adminstration of test compound, and the ED50, 50% effective dose, was determined by observing the existence of tonic convulsion within 5 minutes.
The molecule `Cc1ccc2c(c1)C1=NN(c3ccc(Cl)cc3)C(=O)CC1C[S+]2[O-]` (centres unmarked) [Example 23, 2-(4-chlorophenyl)-9-methyl-2,3,4,4a-tetrahydro-5H-(1)benzothiopyrano[4,3-c]pyridazin-3-one 6-oxide] yielded an ED50 of 40.6 mg/kg.
In turn, `O=C1CC2C[S+]([O-])c3ccc(F)cc3C2=NN1c1ccc(Cl)cc1` (centres unmarked) [Example 19, 2-(4-chlorophenyl)-9-fluoro-2,3,4,4a-tetrahydro-5H-(1)benzothiopyrano[4,3-c]pyridazin-3-one 6-oxide] yielded an ED50 of 10.6 mg/kg.
On the same count and under the same terms, under `O=C1CC2CSc3ccccc3C2=NN1c1ccc(Cl)cc1` (centres unmarked) [Example 1, 2-(4-chlorophenyl)-2,3,4,4a-tetrahydro-5H-(1)benzothiopyrano[4,3-c]pyridazin-3-one] stands 12.4 mg/kg; under `O=C1CC2C[S+]([O-])c3ccccc3C2=NN1c1ccc(Cl)cc1` (centres unmarked) [Example 3, 2-(4-chlorophenyl)-2,3,4,4a-tetrahydro-5H-(1)benzothiopyrano[4,3-c]pyridazin-3-one 6-oxide], 4.1 mg/kg.
